Where two headings read alike, the source gives them in different places.
Legend:
ZIKV (H/PAN and PRV) = experiment: Plaque assay, ZIKV titer from infected Vero cells; type: cell-based, Zika virus; settings: for rescue of ZIKV replication from MTX treatment: 50 µM co-treatment with 5 µM MTX, H/PAN and PRV MOI 0.2, Vero cells; for rescue of ZIKV replication from MTX treatment / decrease in ZIKV titer: 48 h PI; for rescue of ZIKV replication during MTX treatment: 5 µM MTX with GAT medium or 0.67 mM glycine, 37.5 µM adenosine, 41.3 µM thymidine, 48 h
ZIKV (H/PAN) [1] = experiment: Plaque assay, ZIKV titer from infected hNSCs; type: cell-based, Zika virus
ZIKV = settings: human brain microvascular endothelial cells; read-out: inhibitory concentration 50 (IC50) against ZIKV; cited from earlier work
ZIKV (H/PAN) [2] = experiment: Immunofluorescence imaging of ZIKV envelope protein in infected Vero cells
[3] = human
[4] = test system: human brain microvascular endothelial cells; settings: read-out: host cytotoxicity (CC50); cited from earlier work
ZIKV (H/PAN) [5] = experiment: Immunofluorescence imaging of ZIKV envelope protein in infected hNSCs; settings: Zika virus, read-out: IC50 (µM) Values of MTX, Immunofluorescence
[6] = human, hNSCs
Vero cells [7] = settings: for rescue of cell viability during MTX treatment (CTG): 5 µM MTX with GAT medium or 0.67 mM glycine, 37.5 µM adenosine, 41.3 µM thymidine
Vero cells [8] = settings: for rescue of cell viability during MTX treatment (CTF): 5 µM MTX with 0.67 mM glycine, 37.5 µM adenosine or 41.3 µM thymidine, uninfected Vero cells
hNSCs = settings: hNSCs
[9] = GAT medium or 37.5 µM adenosine without MTX

Structure (SMILES): Nc1nc(=O)c2nc(CNc3ccc(C(=O)N[C@@H](CCC(=O)O)C(=O)O)cc3)cnc2[nH]1 [folic acid]
- rescue of ZIKV replication from MTX treatment (ZIKV (H/PAN and PRV)): could not rescue

Structure (SMILES): CN(Cc1cnc2nc(N)nc(N)c2n1)c1ccc(C(=O)N[C@@H](CCC(=O)O)C(=O)O)cc1 [MTX, methotrexate]
- decrease in ZIKV titer (ZIKV (H/PAN and PRV); 5 µM MTX, H/PAN and PRV both MOI 0.2, Vero cells): approximately 10 fold
- ZIKV replication at 96 h PI compared to DMSO control (ZIKV (H/PAN and PRV); 5 µM MTX, Vero cells, 96 h PI): resumed
- decrease in ZIKV titer (ZIKV (H/PAN and PRV); 6.25 µM MTX, H/PAN MOI 0.2, Vero cells): approximately 10 fold
- ZIKV replication in infected hNSCs (ZIKV (H/PAN) [1]; 5 μM MTX, hNSCs): reduced ZIKV replication
- IC50 (ZIKV): 280 nM
- ZIKV envelope protein synthesis (ZIKV (H/PAN) [2]; 5 µM MTX, H/PAN MOI 0.2, Vero cells, 48 h PI): reduced
- IC50 (ZIKV (H/PAN) [2]; Zika virus, Vero, read-out: IC50 (µM) Values of MTX, Immunofluorescence): 0.245 µM
- CC50 [3]: 16.3 nM
- CC50 [4]: > 10 µM
- IC50 (ZIKV (H/PAN) [5]): 0.334 µM
- CC50 [6]: > 100 µM

Structure (SMILES): Nc1ncnc2c1ncn2[C@@H]1O[C@H](CO)[C@@H](O)[C@H]1O [adenosine]
- rescue of ZIKV replication during MTX treatment (ZIKV (H/PAN and PRV); H/PAN MOI 0.2, Vero cells): rescued
- rescue of cell viability during MTX treatment (CTG) (Vero cells [7]; uninfected Vero cells): could
- viability of Vero cells, substance alone (CTG) (Vero cells [7]; [9]): did not alter
- rescue of cell viability during MTX treatment (CTF) (Vero cells [8]): could
- viability of Vero cells, substance alone (CTF) (Vero cells [8]; [9]): did not alter

Structure (SMILES): Nc1nc2c(c(=O)[nH]1)N(C=O)C(CNc1ccc(C(=O)N[C@@H](CCC(=O)O)C(=O)O)cc1)CN2 (stereo partly shown) [leucovorin]
- rescue of ZIKV replication from MTX treatment (ZIKV (H/PAN and PRV)): rescued
- rescue of ZIKV replication during MTX treatment (ZIKV (H/PAN) [1]; 50 µM with 5 µM MTX, H/PAN MOI 0.1, hNSCs): same rescue effect
- cell viability, substance alone (CTG) (hNSCs; 50 µM leucovorin vs water vehicle): No significant difference
- rescue of cell viability during MTX treatment (CTG) (hNSCs; 50 µM with 5 µM MTX): same rescue effect
- cell viability, substance alone (CTG) (Vero cells [7]; 50 µM leucovorin vs water vehicle, Vero cells): No significant difference
- rescue of cell viability after MTX treatment (CTG) (Vero cells [7]; 50 µM with 5 µM MTX, uninfected Vero cells): could rescue

Structure (SMILES): Cc1cn([C@H]2C[C@H](O)[C@@H](CO)O2)c(=O)[nH]c1=O [thymidine]
- rescue of ZIKV replication during MTX treatment (ZIKV (H/PAN and PRV); H/PAN MOI 0.2, Vero cells): could not rescue
- rescue of cell viability during MTX treatment (CTG) (Vero cells [7]; uninfected Vero cells): could not rescue
- rescue of cell viability during MTX treatment (CTF) (Vero cells [8]): could not rescue

Structure (SMILES): NCC(=O)O [glycine]
- rescue of cell viability during MTX treatment (CTG) (Vero cells [7]; uninfected Vero cells): could not rescue
- rescue of cell viability during MTX treatment (CTF) (Vero cells [8]): could not rescue

Source: paper PMC6521145 (Viruses, 2019)
